This is an account of results in PMC11477141, “Chemokine Receptor N-Terminus Charge Dictates Reliance on Post-Translational Modifications for Effective Ligand Capture and Following Boosting by Defense Peptides” (International Journal of Molecular Sciences, 2024).

Where no end group is shown, it is not given here.

What all share (assay type): cell-based, human
In one assay the test system is CCR5-1like. Kind of assay: BRET CAMYEL Gαi signaling via chimeric receptor M1-CCR5-1like. To be noted: n = 3. The text has this:
To finally determine if the lack of acidic amino acids in the CCR5 N-terminus can explain the dependency of this receptor on O-glycosylation for effective ligand interaction, we constructed a CCR5 receptor chimera, where the most acidic N-terminal region of CCR1 was inserted into the CCR5 N-terminus, creating the chimeric receptor CCR5-1like (Figure 7).
Figure 7 Receptor N-termini representing CCR1, CCR5, and the chimeric CCR5-1like. The CCR1 N-terminus contains a lot of acidic amino acids (outlined in red) in the form of aspartic acid (D) and glutamic acid (E), whereas CCR5 only contains a few. The chimeric receptor CCR5-1like that contains part of the CCR1 receptor N-terminus (ETTTDYDE) resembles CCR1 with regard to acidic amino acid content and spacing, but they are not the same.
BRET measurements of Gαi signaling and β-arrestin recruitment: Cells were seeded in 6-well plates (500,000 cells/well) and transiently transfected the following day. For BRET measurements of Gαi signaling, cells were transfected with vectors encoding the human chemokine receptors as indicated (160 ng/well) and the CAMYEL sensor (cAMP sensor, YFP-Epac-RLuc) (840 ng/well) using Lipofectamine (6 µL/well). Briefly, DNA was dissolved in 125 µL OPTI-MEM and Lipofectamine was dissolved in 125 µL OPTI-MEM. The DNA and Lipofectamine solutions were combined into a transfection mixture. The transfection mixture was added dropwise to cells incubated in OPTI-MEM (1 mL/well). Transfections were terminated after 5 h by adding 1 mL of fresh culture medium on top of the OPTI-MEM. The following day the cells were loosened from the plates in PBS with 5 mM glucose and subsequently aliquoted in white 96-well iso plates (~25,000 cells/well). When using C21TP variants and defense peptides (hBD2 and histatin), these were added to a final concentration of 10 μM/well, while an equal amount of PBS was added to control cells. The bioluminescence substrate coelenterazine was added to a final conc. of 5 µM. After 10 min, varying ligand concentrations were added. For BRET measurements of Gαi signaling, forskolin was added 5 min after the addition of the ligand, to a final conc. of 5 µM. The plates were kept in the dark at all times. A Perkin Elmer Envision machine was used for measuring the emission signals at 530 and 480 nm. The BRET signal is determined as the ratio eYFP (530 nm)/Rluc (480 nm).
BRET principle with CAMYEL: For quantification of signaling initiated immediately downstream of receptor activation, we used the cAMP binding CAMYEL sensor to perform bioluminescence resonance energy transfer (BRET) based assays. In this assay we measure changes in intracellular cAMP levels in response to receptor activation. Activation of chemokine receptors lead to a decrease in cAMP through inhibition of adenylate cyclase (AC). In the current setup we initially add forskolin that stimulates AC directly to induce an increase in intracellular cAMP, and we then measure the ability of a ligand (chemokine) to counteract the forskolin-induced increase in cAMP. The cAMP sensor (CAMYEL cAMP sensor, YFP-Epac-RLuc) carries the donor Renilla luciferase (Rluc) and the acceptor YFP. Coelenterazine is a substrate for Rluc that will emit light at around 475 nm upon enzymatic cleavage catalyzed by Rluc. When Rluc and YFP are in close proximity, the energy from the emitted light from coelenterazine can be transferred to YFP, resulting in an excitation of YFP, leading to a BRET signal around 525 nm. […]
In general terms: BRET reads energy transfer from a luciferase to a nearby fluorophore.

A further assay concerns Y10A-CCR5. Kind of assay: BRET CAMYEL Gαi signaling via Y10A-CCR5. To be noted: CHO cells, n = 3. The procedure:
(§1) BRET measurements of Gαi signaling and β-arrestin recruitment: Cells were seeded in 6-well plates (500,000 cells/well) and transiently transfected the following day. For BRET measurements of Gαi signaling, cells were transfected with vectors encoding the human chemokine receptors as indicated (160 ng/well) and the CAMYEL sensor (cAMP sensor, YFP-Epac-RLuc) (840 ng/well) using Lipofectamine (6 µL/well). Briefly, DNA was dissolved in 125 µL OPTI-MEM and Lipofectamine was dissolved in 125 µL OPTI-MEM. The DNA and Lipofectamine solutions were combined into a transfection mixture. The transfection mixture was added dropwise to cells incubated in OPTI-MEM (1 mL/well). Transfections were terminated after 5 h by adding 1 mL of fresh culture medium on top of the OPTI-MEM. The following day the cells were loosened from the plates in PBS with 5 mM glucose and subsequently aliquoted in white 96-well iso plates (~25,000 cells/well). […] The BRET signal is determined as the ratio eYFP (530 nm)/Rluc (480 nm).
(§2) BRET principle with CAMYEL: For quantification of signaling initiated immediately downstream of receptor activation, we used the cAMP binding CAMYEL sensor to perform bioluminescence resonance energy transfer (BRET) based assays. […] The BRET ratio is determined as the ratio between YFP/Rluc, and an increase in BRET ratio indicates a decrease in cAMP and thus increased chemokine receptor activation. […]

A further assay deals with S6S7T16S17AAAA-CCR5. Kind of assay: BRET CAMYEL Gαi signaling via S6S7T16S17AAAA-CCR5. To be noted: CHO cells, n = 3. The procedure: as §1, §2
The next assay concerns T16S17AA-CCR5. Kind of assay: BRET CAMYEL Gαi signaling via T16S17AA-CCR5. As to conditions: CHO cells, n = 3. Here is the method: as §1, §2
Where [1] appears, read: HEK293 WT, DeltaSia and sC cells, 10 µM peptide.

Consider “CCL5: human chemokine from Peprotech, overall basic”, for which the “Gαi signaling via M1-CCR5-1like in DeltaSia and sC cells compared to WT cells” value in the assay on CCR5-1like (HEK293 DeltaSia and sC) was “persists in DeltaSia and sC to almost the same high level as observed in WT cells”. Besides, the “Gαi signaling via Y10A-CCR5 compared to WT-CCR5” value in the assay with Y10A-CCR5 was “significantly reduced”. For the same substance, the “Gαi signaling via S6S7T16S17AAAA-CCR5 compared to WT-CCR5” value in the assay on S6S7T16S17AAAA-CCR5 is recorded as “completely abolished”. Moreover, the “Gαi signaling via T16S17AA-CCR5 compared to WT-CCR5” value in the assay with T16S17AA-CCR5 is on record as “improved”.
As for “RKDRGASKTGKKGKGSKGCKRTERSQTPKGP [C21TP^81-111]”, in the assay on CCR5-1like (setting [1]), the “boosting of CCL3 signaling via M1-CCR5-1like” value is recorded as “absent” and the “boosting of CCL8 signaling via M1-CCR5-1like” value is reported as “absent”. The “boosting of CCL5 signaling via Y10A receptor variant” value in the assay with Y10A-CCR5 (10 µM peptide) was “maintained”. Also, in the assay with S6S7T16S17AAAA-CCR5 (10 µM peptide), the “boosting of CCL5 signaling via S6S7T16S17AAAA receptor variant” value was “not in S6S7T16S17AAAA”. Besides, the “boosting of CCL5 signaling via T16S17AA receptor variant” value in the assay on T16S17AA-CCR5 (10 µM peptide) is given as “maintained”.
